Laboratory results published in PMC11045757, “Group 3 medulloblastoma transcriptional networks collapse under domain specific EP300/CBP inhibition” (Nature Communications, 2024).

Tested on: 460 barcoded cancer cell lines
Test: PRISM pooled barcoded cancer cell line growth screen, 10-point dose-response, 5 days, AUC
Assay type: cell-based
Design: scale not given here
Excerpt: Several small molecule inhibitors of distinct protein domains of EP300/CBP are available, though the majority target the histone acetyltransferase domain (HAT) or bromodomain (BRD)[5],[10],[21],[22]. […] We used these tools to investigate the relative contribution of the EP300/CBP BRD or HAT domain to tumor cell growth (Fig. 1a). To do so, we performed 10-point, dose-response growth assays using mixed pools of 460 barcoded cancer cell lines, over five days of treatment in vitro[33],[34]. Growth was measured using an area-under-the-curve (AUC) approach (Supplementary Table 1, Supplementary Fig. 1a). […] Given potential differences in compound penetration and solubility, and to compare the relative cell line and tumor-specific effects of these two compounds in assays performed non-simultaneously, we performed a median normalization of each dataset (Supplementary Table 2).

CO[C@H]1CC[C@H](n2c([C@@H]3CCCC(=O)N3c3ccc(F)c(F)c3)nc3cc(-c4c(C)noc4C)ccc32)CC1 [CCS1477]
AUC (MG63, Osteosarcoma): 1
AUC (MHHNB11, Neuroblastoma): 0.7003
AUC (MIAPACA2, Pancreatic Cancer): 0.9396
AUC (MKN1, Gastric Cancer): 0.9606
AUC (MKN7, Gastric Cancer): 0.7767
AUC (MKN45, Gastric Cancer): 0.856
AUC (MOLM13, AML): 0.3814
AUC (MOLM16, AML): 0.9868
AUC (MOLT3, T-acute leukemia): 0.9924
AUC (MOLT16, T-acute leukemia): 0.8465
AUC (MON, Rhabdoid): 0.6598
AUC (NB1, Neuroblastoma): 0.5737
AUC (NB4, AML): 1
AUC (NCIH23, Lung Cancer): 0.9771
AUC (NCIH28, Lung Cancer): 0.9928
AUC (NCIH82, Lung Cancer): 0.997
AUC (NCIH196, Lung Cancer): 0.842
AUC (NCIH211, Lung Cancer): 0.8687
AUC (NCIH226, Lung Cancer): 0.9874
AUC (NCIH292, Lung Cancer): 0.9319
AUC (NCIH322, Lung Cancer): 0.9929
AUC (NCIH358, Lung Cancer): 1
AUC (NCIH441, Lung Cancer): 0.7826
AUC (NCIH460, Lung Cancer): 0.9935
AUC (NCIH520, Lung Cancer): 0.9951
AUC (NCIH524, Lung Cancer): 1
AUC (NCIH596, Lung Cancer): 0.9011
AUC (NCIH647, Lung Cancer): 0.8544
AUC (NCIH650, Lung Cancer): 0.6419
AUC (NCIH661, Lung Cancer): 1
AUC (NCIH747, Colon/Colorectal Cancer): 0.9981
AUC (NCIH841, Lung Cancer): 0.9721
AUC (NCIH1048, Lung Cancer): 1
AUC (NCIH1299, Lung Cancer): 0.9947
AUC (NCIH1341, Lung Cancer): 0.9136
AUC (NCIH1373, Lung Cancer): 0.9741
AUC (NCIH1437, Lung Cancer): 0.9932
AUC (NCIH1568, Lung Cancer): 0.9412
AUC (NCIH1573, Lung Cancer): 1
AUC (NCIH1581, Lung Cancer): 0.9081
AUC (NCIH1648, Lung Cancer): 0.7802
AUC (NCIH1792, Lung Cancer): 0.8352
AUC (NCIH1793, Lung Cancer): 0.9609
AUC (NCIH1838, Lung Cancer): 0.9639
AUC (NCIH1930, Lung Cancer): 0.9338
AUC (NCIH1944, Lung Cancer): 0.9624
AUC (NCIH1975, Lung Cancer): 0.9927
AUC (NCIH2004RT, Rhabdoid): 1
AUC (NCIH2052, Lung Cancer): 0.9941
AUC (NCIH2122, Lung Cancer): 0.9334
AUC (NCIH2170, Lung Cancer): 0.8755
AUC (NCIH2172, Lung Cancer): 0.8463
AUC (NCIH2196, Lung Cancer): 0.8725
AUC (NCIH2228, Lung Cancer): 1
AUC (NCIH2347, Lung Cancer): 0.9989
AUC (NCIH2444, Lung Cancer): 1
AUC (NCO2, CML): 0.9122
AUC (NIHOVCAR3, Ovarian Cancer): 0.9967
AUC (NUDHL1, Lymphoma): 0.5218
AUC (NUGC3, Gastric Cancer): 0.905
AUC (OAW42, Ovarian Cancer): 0.9968
AUC (OC314, Ovarian Cancer): 0.7634
AUC (OC316, Ovarian Cancer): 0.664
AUC (OCIAML2, AML): 0.5324
AUC (OCIAML3, AML): 0.8075
AUC (OCILY19, Lymphoma): 0.7248
AUC (OCILY132, T-cell lymphoma): 0.9273
AUC (OCIM1, AML): 0.8977
AUC (OE19, Esophageal Cancer): 0.9508
AUC (OE21, Esophageal Cancer): 0.9943
AUC (ONCODG1, Ovarian Cancer): 0.9442
AUC (ONS76, Medulloblastoma): 0.6602
AUC (OSRC2, Kidney Cancer): 1
AUC (OV56, Ovarian Cancer): 1
AUC (OVCAR8, Ovarian Cancer): 0.8858
AUC (OVISE, Ovarian Cancer): 0.9803
AUC (OVK18, Ovarian Cancer): 0.5969
AUC (OVKATE, Ovarian Cancer): 0.8791
AUC (OVTOKO, Ovarian Cancer): 0.9328
AUC (PANC0203, Pancreatic Cancer): 0.9609
AUC (PANC0327, Pancreatic Cancer): 1
AUC (PANC0403, Pancreatic Cancer): 0.9938
AUC (PANC0504, Pancreatic Cancer): 0.8732
AUC (PANC0813, Pancreatic Cancer): 1
AUC (PATU8902, Pancreatic Cancer): 0.9744
AUC (PC3, Prostate Cancer): 1
AUC (PECAPJ15, Head and Neck Cancer): 0.9295
AUC (PF382, T-acute leukemia): 0.7571
AUC (PK1, Pancreatic Cancer): 0.9937
AUC (PK59, Pancreatic Cancer): 1
AUC (PSN1, Pancreatic Cancer): 0.7783
AUC (RCM1, Colon/Colorectal Cancer): 0.9586
AUC (RD, Rhabdomyosarcoma): 0.8954
AUC (RDES, Ewing Sarcoma): 0.5629
AUC (RERFLCAI, Lung Cancer): 0.937
AUC (RERFLCKJ, Lung Cancer): 0.8827
AUC (RH4, Rhabdomyosarcoma): 0.8163
AUC (RH28, Rhabdomyosarcoma): 0.8877
AUC (RH36, Rhabdomyosarcoma): 0.9558
AUC (RHJT, Rhabdomyosarcoma): 0.8764
AUC (RI1, B-cell Lymphoma): 0.7034
AUC (RL952, Endometrial/Uterine Cancer): 0.9936
AUC (RL, B-cell Lymphoma): 0.8905
AUC (RPMI8402, T-acute leukemia): 0.8153
AUC (RT4, Bladder Cancer): 0.9721
AUC (RVH421, Melanoma): 0.975
AUC (S117, Thyroid Sarcoma): 0.8697
AUC (SAOS2, Osteosarcoma): 0.6766
AUC (SCABER, Bladder Cancer): 0.9263
AUC (SCC9, Head and Neck Cancer): 0.7896
AUC (SCC25, Head and Neck Cancer): 0.9849
AUC (SCLC21H, Lung Cancer): 0.8733
AUC (SEM, B-cell Leukemia): 0.851
AUC (SF539, Glioma): 0.9912
AUC (SH4, Melanoma): 0.9252
AUC (SH10TC, Gastric Cancer): 0.7637
AUC (SHP77, Lung Cancer): 0.791
AUC (SIMA, Neuroblastoma): 0.8003
AUC (SJSA1, Osteosarcoma): 0.881
AUC (SKES1, Ewing Sarcoma): 0.7015
AUC (SKHEP1, Liver Cancer): 0.9726
AUC (SKM1, AML): 0.6213
AUC (SKMEL30, Melanoma): 0.7984
AUC (SKMES1, Lung Cancer): 0.9581
AUC (SKMM2, Myeloma): 0.9554
AUC (SKNAS, Neuroblastoma): 0.9789
AUC (SKNBE2, Neuroblastoma): 0.6208
AUC (SKNDZ, Neuroblastoma): 0.8143
AUC (SKNEP1, Ewing Sarcoma): 0.8025
AUC (SKNMC, Ewing Sarcoma): 0.8546
AUC (SKNO1, AML): 0.6432
AUC (SKNSH, Neuroblastoma): 0.8336
AUC (SKOV3, Ovarian Cancer): 0.9975
AUC (SKUT1, Leiomyosarcoma): 0.8326
AUC (SNU1, Gastric Cancer): 0.9131
AUC (SNU46, Head and Neck Cancer): 0.9224
AUC (SNU61, Colon/Colorectal Cancer): 0.9346
AUC (SNU81, Colon/Colorectal Cancer): 1
AUC (SNU182, Liver Cancer): 0.7735
AUC (SNU201, Glioblastoma): 0.712
AUC (SNU213, Pancreatic Cancer): 0.9853
AUC (SNU216, Gastric Cancer): 0.9769
AUC (SNU245, Bile Duct Cancer): 0.8366
AUC (SNU407, Colon/Colorectal Cancer): 0.9923
AUC (SNU423, Liver Cancer): 0.9162
AUC (SNU449, Liver Cancer): 0.9509
AUC (SNU466, Glioblastoma): 0.9993
AUC (SNU478, Bile Duct Cancer): 0.6392
AUC (SNU601, Gastric Cancer): 0.8941
AUC (SNU668, Gastric Cancer): 0.9591
AUC (SNU685, Endometrial/Uterine Cancer): 0.9601
AUC (SNU719, Gastric Cancer): 0.914
AUC (SNU869, Bile Duct Cancer): 0.9994
AUC (SNU878, Liver Cancer): 0.7965
AUC (SNU886, Liver Cancer): 1
AUC (SNU1041, Head and Neck Cancer): 0.8828
AUC (SNU1066, Head and Neck Cancer): 1
AUC (SNU1076, Head and Neck Cancer): 0.8929
AUC (SNU1077, Endometrial/Uterine Cancer): 0.9948
AUC (SNU1079, Bile Duct Cancer): 0.994
AUC (SNU1105, Glioblastoma): 0.9872
AUC (SNU1196, Bile Duct Cancer): 0.8873
AUC (SNU1214, Head and Neck Cancer): 0.7307
AUC (SNUC2A, Colon/Colorectal Cancer): 0.8028
AUC (SNUC4, Colon/Colorectal Cancer): 0.894
AUC (SQ1, Lung Cancer): 0.8902
AUC (SR786, Lymphoma): 0.7905
AUC (STM9101, Rhabdoid): 0.9061
AUC (SUDHL8, Lymphoma): 0.8983
AUC (SW48, Colon/Colorectal Cancer): 1
AUC (SW579, Thyroid Cancer): 0.9957
AUC (SW620, Colon/Colorectal Cancer): 1
AUC (SW780, Bladder Cancer): 0.8694
AUC (SW837, Colon/Colorectal Cancer): 0.8996
AUC (SW900, Lung Cancer): 0.9538
AUC (SW948, Colon/Colorectal Cancer): 0.8065
AUC (SW1088, Glioma): 0.9904
AUC (SW1116, Colon/Colorectal Cancer): 0.8985
AUC (SW1463, Colon/Colorectal Cancer): 0.8864
AUC (SW1710, Bladder Cancer): 1
AUC (T3M10, Lung Cancer): 0.9279
AUC (T24, Bladder Cancer): 0.9961
AUC (T47D, Breast Cancer): 0.8791
AUC (TALL1, T-acute leukemia): 0.9864
AUC (TC71, Ewing Sarcoma): 0.7599
AUC (TC106, Ewing Sarcoma): 1
AUC (TC205, Ewing Sarcoma): 0.7558
AUC (TCCPAN2, Pancreatic Cancer): 0.9414
AUC (TCCSUP, Bladder Cancer): 0.982
AUC (TE1, Esophageal Cancer): 1
AUC (TE4, Esophageal Cancer): 1
AUC (TE6, Esophageal Cancer): 0.9744
AUC (TE9, Esophageal Cancer): 0.9981
AUC (TE10, Esophageal Cancer): 0.7792
AUC (TE11, Esophageal Cancer): 0.9258
AUC (TE15, Esophageal Cancer): 0.8586
AUC (TE617T, Rhabdomyosarcoma): 0.9947
AUC (TF1, AML): 0.6668
AUC (TM87, Rhabdoid): 0.9581
AUC (TOLEDO, Lymphoma): 0.9697
AUC (TOV21G, Ovarian Cancer): 0.9924
AUC (TT2609C02, Thyroid Cancer): 0.8798
AUC (TT, Thyroid Cancer): 0.7695
AUC (TTC442, Rhabdomyosarcoma): 0.8425
AUC (TTC549, Rhabdoid): 0.9131
AUC (TTC642, Rhabdoid): 0.7844
AUC (TTC1240, Rhabdoid): 0.4497
AUC (TYKNU, Ovarian Cancer): 0.8502
AUC (U2OS, Osteosarcoma): 0.8623
AUC (U266B1, Myeloma): 0.9866
AUC (U937, AML): 0.7957
AUC (UACC62, Melanoma): 0.8964
AUC (UACC257, Melanoma): 0.9638
AUC (UBLC1, Bladder Cancer): 0.695
AUC (UMUC1, Bladder Cancer): 0.8319
AUC (UW228, Medulloblastoma): 0.9704
AUC (VMCUB1, Bladder Cancer): 0.7437
AUC (VMRCRCW, Kidney Cancer): 0.9159
AUC (VMRCRCZ, Kidney Cancer): 0.8277
AUC (WM88, Melanoma): 0.9177
AUC (WM793, Melanoma): 0.9978
AUC (WM983B, Melanoma): 0.8412
AUC (YAPC, Pancreatic Cancer): 1
AUC (YD10B, Head and Neck Cancer): 0.8679
AUC (YD15, Head and Neck Cancer): 0.7679
AUC (YD38, Head and Neck Cancer): 0.6898
AUC (YH13, Glioblastoma): 0.9673
